Measurements from patent publication US10702506B2, “Small molecule inhibitors of pendrin ion exchange and pharmaceutical compositions” (THE REGENTS OF THE UNIVERSITY OF CALIFORNIA, priority 2016, dated 2020).

Target: T1, ENaC (Homo sapiens, UniProt P37088+P51168+P51170)
T1 construct: endogenous in cells; host or cells: IL-13-treated primary human bronchial epithelial (HBE) cell cultures
T1 sequence (P37088 1-669): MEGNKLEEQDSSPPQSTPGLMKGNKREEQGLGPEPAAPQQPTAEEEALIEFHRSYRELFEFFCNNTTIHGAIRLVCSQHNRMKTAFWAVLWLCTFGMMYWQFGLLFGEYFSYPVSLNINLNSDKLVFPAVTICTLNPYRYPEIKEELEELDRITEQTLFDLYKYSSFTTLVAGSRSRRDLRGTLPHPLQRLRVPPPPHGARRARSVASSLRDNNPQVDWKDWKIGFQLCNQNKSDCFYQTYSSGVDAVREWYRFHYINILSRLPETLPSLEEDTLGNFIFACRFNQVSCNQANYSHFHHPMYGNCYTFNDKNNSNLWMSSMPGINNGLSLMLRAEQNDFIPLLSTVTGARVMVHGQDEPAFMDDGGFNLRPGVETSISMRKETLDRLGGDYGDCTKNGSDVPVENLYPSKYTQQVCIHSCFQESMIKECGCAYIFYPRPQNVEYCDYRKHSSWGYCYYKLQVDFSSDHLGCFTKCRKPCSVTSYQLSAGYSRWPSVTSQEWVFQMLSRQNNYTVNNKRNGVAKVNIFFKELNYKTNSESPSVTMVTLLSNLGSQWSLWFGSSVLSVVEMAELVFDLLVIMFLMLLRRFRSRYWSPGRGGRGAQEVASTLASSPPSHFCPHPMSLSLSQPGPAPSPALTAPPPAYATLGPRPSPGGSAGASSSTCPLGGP
T1 sequence (P51168 1-640): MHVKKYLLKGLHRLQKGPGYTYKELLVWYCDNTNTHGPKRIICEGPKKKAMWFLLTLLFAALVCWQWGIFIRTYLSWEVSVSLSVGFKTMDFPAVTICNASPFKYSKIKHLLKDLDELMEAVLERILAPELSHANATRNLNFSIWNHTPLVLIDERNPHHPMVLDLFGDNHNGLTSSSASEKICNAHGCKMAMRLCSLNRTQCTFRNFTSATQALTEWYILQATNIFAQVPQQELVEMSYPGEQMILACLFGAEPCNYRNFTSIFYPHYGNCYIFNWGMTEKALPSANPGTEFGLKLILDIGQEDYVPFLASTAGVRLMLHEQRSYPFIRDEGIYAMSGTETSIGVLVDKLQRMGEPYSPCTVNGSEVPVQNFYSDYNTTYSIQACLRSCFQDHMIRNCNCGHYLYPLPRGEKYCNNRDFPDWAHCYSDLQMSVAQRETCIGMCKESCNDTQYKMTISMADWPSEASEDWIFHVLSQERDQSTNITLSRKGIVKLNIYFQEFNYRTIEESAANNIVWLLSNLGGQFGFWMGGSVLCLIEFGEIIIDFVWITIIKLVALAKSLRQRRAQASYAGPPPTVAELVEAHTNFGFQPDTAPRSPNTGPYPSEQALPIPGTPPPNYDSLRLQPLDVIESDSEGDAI
T1 sequence (P51170 1-649): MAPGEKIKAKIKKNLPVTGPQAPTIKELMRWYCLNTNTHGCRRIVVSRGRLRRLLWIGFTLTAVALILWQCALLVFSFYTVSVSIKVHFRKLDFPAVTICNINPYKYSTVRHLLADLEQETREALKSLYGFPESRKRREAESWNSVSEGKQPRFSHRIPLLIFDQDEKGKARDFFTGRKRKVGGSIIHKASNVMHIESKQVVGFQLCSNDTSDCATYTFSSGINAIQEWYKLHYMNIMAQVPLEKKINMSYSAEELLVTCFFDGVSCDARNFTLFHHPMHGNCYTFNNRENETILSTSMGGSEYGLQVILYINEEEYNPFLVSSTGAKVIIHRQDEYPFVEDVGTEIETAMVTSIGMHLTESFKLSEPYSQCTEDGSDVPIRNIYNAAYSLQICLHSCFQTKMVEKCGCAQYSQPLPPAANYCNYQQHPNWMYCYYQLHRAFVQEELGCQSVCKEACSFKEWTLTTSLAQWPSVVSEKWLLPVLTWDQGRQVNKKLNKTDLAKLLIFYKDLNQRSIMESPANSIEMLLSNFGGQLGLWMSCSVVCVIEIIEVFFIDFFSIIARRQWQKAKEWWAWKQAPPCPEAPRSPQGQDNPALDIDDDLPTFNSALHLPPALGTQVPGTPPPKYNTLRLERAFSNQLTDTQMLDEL
Experiment: Short-circuit current (Isc) analysis in IL-13-treated HBE cells, amiloride response
Type: cell-based
Conditions: 25 μM, 30 min pre-treatment
Method: Further experiments were done with PDSinh-A01 because of its greater inhibition potency for Cl^−/HCO3^− exchange than PDSinh-C01. To investigate PDSinh-A01 specificity, the major ion transport pathways in HBE cells were studied by short-circuit current (Isc) analysis. Cells were treated with IL-13 to increase Ca^2+-activated Cl^− conductance (CaCC) activity. For Isc measurements, cells were sequentially treated with amiloride to inhibit the epithelial sodium channel (ENaC), forskolin to activate the cystic fibrosis transmembrane conductance regulator (CFTR), CFTRinh-172 to inhibit CFTR, and ATP to activate CaCC. In the absence of PDSinh-A01, ion channel modulators produced the anticipated changes in Isc (FIG. 4A).
IL-13-treated HBE cells were cultured on Snapwell clear permeable supports (12 mm diameter, 0.4 μm polyester membrane, Costar, Corning, Corning, N.Y.). Short-circuit current was measured using symmetrical HCO3^−-buffered solutions (in mM: 120 NaCl, 5 KCl, 1 MgCl2, 1 CaCl2, 5 Hepes, 25 NaHCO3; pH 7.4) as described, with ion transport modulators added to both apical and basolateral bathing solutions. Cells were equilibrated with 95% O2/5% CO2 and maintained at 37° C. during data acquisition. Statistical analysis was by Student's t-test.

Compound: Cn1nc(COc2cccc(F)c2)c2c1CCN(C(=O)Nc1ccc(Cl)cc1)C2 [PDSinh-A01]
- effect on ENaC activity (Isc response): did not affect the activity
